Read-outs that look alike come from different tables or passages of the source.

The test system of series [1] is Zika virus, PR ABC strain (ZIKV, PR2015). The experiment in a line: Yield reduction assay followed by plaque assay in Vero cells, ZIKV PR2015. Format: cell-based. Conditions: 120 h, read-out: ZIKV, PR2015 IC50. The method, then: (§1) The iminosugar compounds set forth in Table 4, below, were evaluated for antiviral activity against Zika virus, FSS 13025 strain (ZIKV, Cambodia 2010) and PR ABC strain (ZIKV, PR2015) in an yield reduction assay followed by a plaque assay.
In the yield reduction assay, Vero cells were seeded in 24-well plates and incubated overnight. The next day, serial dilutions of a given compound were prepared at 200 μM, 100 μM, 20 μM, 4 μM, 0.8 μM, 0.16 μM, 0.03 μM, and 0.01 μM. Growth medium was removed from the cells and the serial dilutions of the given compound were added in duplicate for one hour. Zika virus, PR ABC strain (ZIKV, PR2015) was added at a multiplicity of infection (MOI) of 0.01 for one hour. Growth medium was added to 1 mL and the cells were incubated for 5 days. Thereafter, cell supernatants were harvested, cleared of cell debris by centrifugation, and stored at −80° C. until further analysis for viral content in a plaque assay.
Plaque assays were performed by seeding Vero cells in 24-well plates and allowing the cells to adhere overnight. The next day each of the harvested supernatants from the yield-reduction assay were serially diluted 10-fold, growth medium was removed from the cells, and the adhered cells were infected with the dilutions of the supernatants for 1 h. The cells were incubated with 0.8% carboxymethyl cellulose (CMC) for 3 days. At the end of the incubation, CMC overlay was removed, and the cells were permeabilized with an 80%/20% (V/V) mixture of ethanol and methanol for 10 min at −20° C. Plaques were visualized by performing an immunostaining assay with monoclonal 4G2 (ATCC) which was detected by HRP-conjugated goat anti-mouse antibody and visualized using HRP-conjugated goat anti-mouse polyclonal antibodies. Relative inhibition was calculated using IDBS XLFIT analysis program.
(§2) The duplicate titers for virus-only (vehicle control) were averaged and used as 0% inhibition. Efficacy data for the compounds were reported as the mean of the duplicates, including the standard deviation (SD) and coefficient of variation (% CV). FIGS. 2A, 2B, 3A, 3B, 4A, 4B, 5A, 5B, 6A, 6B, 7A, 7B, 8A, 8B, 9A, 9B, 10A, 10B, 11A, 11B, 12A, 12B, 13A, 13B, 14A, 14B, and 15 show the in vitro inhibitory effect of the iminosugar compounds against Zika virus, FSS 13025 strain, as set forth in Table 3 below.

Series [2] is described as follows: In vitro cell cytotoxicity (CellTiter-Glo) in Vero cells. Format: cell-based. Conditions: African green monkey, 3-5 days, max concentration 500 or 1000 μM, * = average of two values. A general note: ATP-based viability assays read luminescence as a measure of living cells.
For series [3], the system named is Zika virus, FSS 13025 strain (ZIKV, Cambodia 2010). The experiment in a line: Yield reduction assay followed by plaque assay in Vero cells, ZIKV Cambodia 2010. Format: cell-based. As to conditions: for IC50: Zika virus, 96 h, read-out: ZIKV, Cambodian 2010 IC50; for IC50 (summary in words): summary of Table 3. The procedure: as §1
In the yield reduction assay, Vero cells were seeded in 24-well plates and incubated overnight. The next day, serial dilutions of a given compound were prepared at 300 μM, 100 μM, 30 μM, 10 μM, and 3.0 μM. Growth medium was removed from the cells and the serial dilutions of the given compound were added in duplicate for one hour. Zika virus, FSS 13025 strain (ZIKV, Cambodia 2010) was added at a multiplicity of infection (MOI) of 0.01 for one hour. Growth medium was added to 1 mL and the cells were incubated for 4 days. Thereafter, cell supernatants were harvested, cleared of cell debris by centrifugation, and stored at −80° C. until further analysis for viral content in a plaque assay.
Plaque assays were performed by seeding Vero cells in 24-well plates and allowing the cells to adhere overnight. The next day each of the harvested supernatants from the yield-reduction assay were serially diluted 10-fold, growth medium was removed from the cells, and the adhered cells were infected with the dilutions of the supernatants for 1 h. Methylcellulose was added and the cells were incubated for 3 days. Plaques were visualized by staining the cell monolayer with crystal violet. Relative inhibition was calculated using IDBS XLFIT analysis program.
as §2

The subject of series [4] is Zika virus (isolate FSS13025 of the Asian genotype). In words: Efficacy against lethal Zika virus infection in AG129 mice. Format: in vivo. As to conditions: 1E2 FFU Zika virus, 750 mg/kg once daily for three days by oral gavage, starting 16 hours after exposure, vs vehicle (FIG. 1). The procedure: AG129 mice, aged 5-7 weeks, of both sexes were divided into groups of eight mice each. Mice were infected with 1E2 FFU of Zika virus (isolate FSS13025 of the Asian genotype). The mice were treated 16 hours after exposure. One group was administered 750 mg/kg of UV-4 once daily for three days. UV-4 was formulated in water and all doses were administered via oral gavage in a volume of 100 μL. A control group was administered vehicle (water) only. Predefined study endpoints were mortality, euthanasia due to severe morbidity, or termination after 10 days total. Weights were measured and health scores were determined daily.

Where [5] appears, read: Vero cells, MOI 0.01, 5 days, plaque assay with immunostaining, * = average of multiple data points.
[6] abbreviates: Vero cells, MOI 0.01, 4 days, plaque assay of supernatants, * = average of multiple data points.

The IC50 is the concentration needed to halve the response being measured. The term CC50 denotes the concentration at which the toxic effect on the cells reaches its halfway point. For the molecule `OC[C@@H]1[C@@H](O)[C@H](O)[C@@H](O)CN1CCCCCCCCC1CCCO1` (stereo partly drawn) [Compound 1, (2R,3R,4R,5S)-2-(hydroxymethyl)-1-(8-(tetrahydrofuran-2-yl)octyl)piperidine-3,4,5-triol], the figures for the IC50 in series [1] (setting [5]) and in series [3] (setting [6]) were 69.6 µM and 45.7 µM, respectively. In series [2], this molecule registered a CC50 of over 500 µM.
Regarding `COC(C)(C)CCCCCCCCN1C[C@H](O)[C@@H](O)[C@H](O)[C@H]1CO` [Compound 2, (2R,3R,4R,5S)-2-(hydroxymethyl)-1-(9-methoxy-9-methyldecyl)piperidine-3,4,5-triol], the values for the IC50 in series [1] (setting [5]) and in series [3] (setting [6]) were 12.6 µM and 10.1 µM, respectively. For the same molecule, the CC50 in series [2] is over 500 µM. In series [3], the “IC50 (summary in words)” value is reported as “low micromolar activity”.
Consider `O=[N+]([O-])c1cc(N2CCOCC2)ccc1NCCCCCCN1C[C@H](O)[C@@H](O)[C@H](O)[C@H]1CO` [Compound 8, (2R,3R,4R,5S)-2-(hydroxymethyl)-1-(6-((4-morpholino-2-nitrophenyl)amino)hexyl)piperidine-3,4,5-triol], for which the IC50 in series [1] (setting [5]) and in series [3] (setting [6]) was over 100 µM throughout. Moreover, the half-maximal cytotoxic concentration (CC50) in series [2] was over 1000 µM.
For `CN(C)Cc1ccc(NCCCCCCN2C[C@H](O)[C@@H](O)[C@H](O)[C@H]2CO)c([N+](=O)[O-])c1` [Compound 11, (2R,3R,4R,5S)-1-(6-((4-((dimethylamino)methyl)-2-nitrophenyl)amino)hexyl)-2-(hydroxymethyl)piperidine-3,4,5-triol], the IC50 in series [1] (setting [5]) and in series [3] (setting [6]) was over 100 µM in each case. For the same molecule, the CC50 in series [2] is over 1000 µM.
As to `[N-]=[N+]=Nc1ccc([N+](=O)[O-])c(NCCCCCCN2C[C@H](O)[C@@H](O)[C@H](O)[C@H]2CO)c1` [Compound 12, (2R,3R,4R,5S)-1-(6-((5-azido-2-nitrophenyl)amino)hexyl)-2-(hydroxymethyl)piperidine-3,4,5-triol], the IC50 in series [1] (setting [5]) was determined as 94.6 µM; in series [3] (setting [6]) it was 38.7 µM. The molecule also registered a cytotoxic concentration (CC50) in series [2] of 140 µM. Besides, in series [3], the “IC50 (summary in words)” value is given as “low micromolar activity”.
Taken in the same sequence, the figures for `CN1CCN(Cc2ccc(NCCCCCCN3C[C@H](O)[C@@H](O)[C@H](O)[C@H]3CO)c([N+](=O)[O-])c2)CC1` [Compound 15, (2R,3R,4R,5S)-2-(hydroxymethyl)-1-(6-((4-((4-methylpiperazin-1-yl)methyl)-2-nitrophenyl)amino)hexyl)piperidine-3,4,5-triol] were 150 µM, 12.1 µM, over 1000 µM and “low micromolar activity”.
`OC[C@@H]1[C@@H](O)[C@H](O)[C@@H](O)CN1CCCCCCNc1ncc2[nH]cnc2n1` [Compound 20, (2R,3R,4R,5S)-1-(6-((7H-purin-2-yl)amino)hexyl)-2-(hydroxymethyl)piperidine-3,4,5-triol]: the IC50 in series [1] (setting [5]) was over 100 µM. In addition, the CC50 in series [2] was 832 µM.
Turning to `CCCOCCCCCCN1C[C@H](O)[C@@H](O)[C@H](O)[C@H]1CO` [UV-3, (2R,3R,4R,5S)-2-(hydroxymethyl)-1-(6-propoxyhexyl)piperidine-3,4,5-triol], the IC50 in series [1] (setting [5]) is over 100 µM.
Take `COCCCCCCCCCN1C[C@H](O)[C@@H](O)[C@H](O)[C@H]1CO` [UV-4, (2R,3R,4R,5S)-2-(hydroxymethyl)-1-(9-methoxynonyl)piperidine-3,4,5-triol]: the IC50 in series [1] (Vero) and in series [3] (Vero) was over 100 µM each time. The survival entry in series [4] was “statistically significant survival benefit”. In addition, the CC50 in series [2] was over 1000 µM.
For `[N-]=[N+]=Nc1ccc(NCCCCCCN2C[C@H](O)[C@@H](O)[C@H](O)[C@H]2CO)c([N+](=O)[O-])c1` [UV-5, (2R,3R,4R,5S)-1-(6-((4-azido-2-nitrophenyl)amino)hexyl)-2-(hydroxymethyl)piperidine-3,4,5-triol], the IC50 in series [1] (Vero) is 5.24 µM; in series [3] (Vero) it was 4.42 µM. This molecule also had a CC50 in series [2] of 77.3 µM. The “IC50 (summary in words)” value in series [3] is “low micromolar activity”.
